Where two headings read alike, the source gives them in different places.
How the values were obtained:
[1] = Pharmacokinetic profile in CD-1 mice; type: in vivo; conditions: plasma, CD-1 mouse; for AUC: read-out: AUC(0-⊠)
[2] = system: VCaP cells; assay: Cell viability assay (CellTiter-Glo, 5 days); type: cell-based, human; conditions: Homo sapiens, VCaP
Method: (§1) Cells were seeded in 96-well plates and incubated at 37°C with 5% CO2 overnight. A series of compound dilutions were added into the cells. After 5 days incubation, cell proliferation was tested using the CellTiter-Glo assay (Promega) according to the manufacturer’s protocol. Luminescence was measured using the Infinite M1000 Pro plate reader (Tecan). Data analysis was conducted using GraphPad Prism software.

[3] = system: prostate cancer cells; assay: Cell viability, prostate cancer cells; type: cell-based; conditions: Homo sapiens, Figure 3A
Method: as §1

[4] = system: WA74 PDX; assay: WA74 patient-derived xenograft efficacy; type: in vivo, mouse
Method: Six-week-old male CB17SCID mice obtained from Charles River (Stock # 236), were used to establish subcutaneous tumors on both dorsal flanks. Tumor dimensions were measured biweekly using digital calipers, applying the formula (π/6) (L × W^2), where L and W represent tumor length and width, respectively. At the study conclusion, mice were euthanized, and tumors were excised and weighed. The University of Michigan Institutional Animal Care and Use Committee (IACUC) approved all in vivo studies.
WA74 PDX model was developed at the University of Michigan during collection of a rapid autopsy case as part of the Michigan Legacy Tissue Program (MLTP). PC310 PDX model was obtained from Erasmus Medical Center, Rotterdam, the Netherlands. Both PDX lines were propagated in male CB17SCID mice by surgically implanting 2 mm^3 tumor fragments, coated with 100% Matrigel, into both flanks of mice. When tumors reached approximately 200 mm^3, mice were randomized into treatment groups. These groups received either 30 mg/kg YJ9069 via intravenous injection or 100 mg/kg YJ1206 by oral gavage, both administered three times per week, with or without 15 mg/kg uprosertib by oral gavage five days per week for 3–4 weeks. In accordance with IACUC guidelines, the maximum tumor size was limited to 2.0 cm in any dimension, and mice were euthanized if xenografts reached this endpoint.

[5] = system: RWPE1; assay: Cell viability assay (CellTiter-Glo, 5 days); type: cell-based; conditions: Homo sapiens, RWPE-1; RWPE, dose-response curve, Figure 3A
Method: as §1

[6] = system: 22RV1; assay: Cell viability assay (CellTiter-Glo, 5 days); type: cell-based; conditions: Homo sapiens
Method: as §1

[7] = system: MFM223; assay: Cell viability assay (CellTiter-Glo, 5 days); type: cell-based; conditions: Homo sapiens, MFM-223, 120 h; MFM223, 5 days of treatment, Figure 1F
Method: as §1

[8] = system: BPH-1; assay: Cell viability assay (CellTiter-Glo, 5 days); type: cell-based; conditions: Homo sapiens; BPH-1, dose-response curve, Figure 3A
Method: as §1

[9] = system: LAPC4; assay: Cell viability assay (CellTiter-Glo, 5 days); type: cell-based; conditions: Homo sapiens
Method: as §1

[10] = system: MCF12A; assay: Cell viability assay (CellTiter-Glo, 5 days); type: cell-based; conditions: Homo sapiens, MCF-12A, 120 h, 5 days of treatment, Figure 1F
Method: as §1

[11] = system: PC3; assay: Cell viability assay (CellTiter-Glo, 5 days); type: cell-based; conditions: Homo sapiens, PC-3, 120 h; PC3, 5 days of treatment, Figure 1F
Method: as §1

[12] = system: MDA-MB-468; assay: Cell viability assay (CellTiter-Glo, 5 days); type: cell-based; conditions: Homo sapiens, 120 h; MDA-MB-468, 5 days of treatment, Figure 1F
Method: as §1

[13] = system: MCF7; assay: Cell viability assay (CellTiter-Glo, 5 days); type: cell-based; conditions: Homo sapiens, 120 h; MCF7, 5 days of treatment, Figure 1F
Method: as §1

[14] = system: DU145; assay: Cell viability assay (CellTiter-Glo, 5 days); type: cell-based; conditions: Homo sapiens, DU-145, 120 h; DU145, 5 days of treatment, Figure 1F
Method: as §1

[15] = system: PNT2; assay: Cell viability assay (CellTiter-Glo, 5 days); type: cell-based; conditions: Homo sapiens, 120 h; PNT2, 5 days of treatment, Figure 1F
Method: as §1

[16] = system: SK-BR-3; assay: Cell viability assay (CellTiter-Glo, 5 days); type: cell-based; conditions: Homo sapiens, 120 h; SK-BR-3, 5 days of treatment, Figure 1F
Method: as §1

[17] = system: PrEC; assay: Cell viability assay (CellTiter-Glo, 5 days); type: cell-based; conditions: Homo sapiens, 120 h, 5 days of treatment, Figure 1F
Method: as §1

[18] = system: WPMY-1; assay: Cell viability assay (CellTiter-Glo, 5 days); type: cell-based; conditions: Homo sapiens, 120 h; WPMY-1, 5 days of treatment, Figure 1F
Method: as §1

[19] = system: MCF10A; assay: Cell viability assay (CellTiter-Glo, 5 days); type: cell-based; conditions: Homo sapiens, MCF-10A, 120 h, 5 days of treatment, Figure 1F
Method: as §1

[20] = system: CWR22RV1; assay: Cell viability assay (CellTiter-Glo, 5 days); type: cell-based; conditions: Homo sapiens, 120 h; CWR22RV1, 5 days of treatment, Figure 1F
Method: as §1

[21] = Toxicity study in CD-1 immune-competent mice; type: in vivo, mouse
[22] = system: benign immortalized cell lines (PrEC, WPMY-1, BPH-1, RWPE1, PNT2, MCF10A, MCF12A); assay: Cell viability, benign immortalized cell lines; type: cell-based; conditions: Homo sapiens, 120 h; most benign immortalized cell lines, 5 days; read-out: half-maximal inhibitory concentration [IC50]
Method: as §1

O=C1CCC(N2C(=O)c3cccc(OCC(=O)N4CCN(c5ccc(N(C(=O)NCc6ccccc6)C6CCC(Nc7ncc8ccccc8n7)CC6)cc5)CC4)c3C2=O)C(=O)N1 (centres unmarked) [YJ9069]
AUC(0-t) ([1]; iv, i.v. 2.5 mg/kg): 3150 ng·h/mL | Cmax ([1]; iv, i.v. 2.5 mg/kg): 3650 ng/mL | Tmax ([1]; iv, i.v. 2.5 mg/kg): 0.08 h | clearance ([1]; iv, i.v. 2.5 mg/kg): 13.1 mL/min/kg | half-life ([1]; iv, i.v. 2.5 mg/kg): 5.23 h | AUC ([1]; iv, i.v. 2.5 mg/kg): 3220 ng·h/mL | bioavailability ([1]; oral, p.o. 10 mg/kg vs i.v. 2.5 mg/kg, read-out: F% (oral bioavailability)): 1.02% | AUC(0-t) ([1]; po, p.o. 10 mg/kg): 128 ng·h/mL | Cmax ([1]; po, p.o. 10 mg/kg): 55 ng/mL | Tmax ([1]; po, p.o. 10 mg/kg): 0.25 h | half-life ([1]; po, p.o. 10 mg/kg): 2.44 h | AUC ([1]; po, p.o. 10 mg/kg): 145 ng·h/mL | IC50 ([2]; 120 h, VCaP cells, 5 days, Figure 4C, read-out: IC50): 22.2 nM | IC50 ([2]; 120 h, VCaP cells, 5 days, Figure S1E, read-out: IC50): 44 nM | IC50 ([2]; VCaP cell viability, linker optimization, Figure S4B, read-out: VCaP IC50): 22.9 nM | IC50 [3]: < 200 nM | anti-tumor effect (regression) ([4]; 30 mg/kg, 3 times/week, 21 days): regression in all animals | partial response (PR), waterfall plot (RECIST) ([4]; i.v. 30 mg/kg 2x/week): 43% | stable disease (SD), waterfall plot (RECIST) ([4]; i.v. 30 mg/kg 2x/week): 43% | partial response (PR), waterfall plot (RECIST) ([4]; i.v. 30 mg/kg 3x/week): 100% | IC50 [5]: > 10000 nM | IC50 ([6]; 120 h, 22RV1, 5 days of treatment, Figure 1F): 90.3 nM | IC50 ([6]; 22RV1, dose-response curve, Figure 3A): 144 nM | IC50 [7]: 44.2 nM | IC50 [8]: > 10000 nM | IC50 ([9]; 120 h, LAPC4, 5 days of treatment, Figure 1F): 152 nM | IC50 ([9]; LAPC4, dose-response curve, Figure 3A): 109 nM | IC50 [10]: > 10000 nM | IC50 [11]: 2390 nM | IC50 [12]: 678 nM | IC50 [13]: 1740 nM | IC50 [14]: > 10000 nM | IC50 [15]: > 10000 nM | IC50 [16]: 1280 nM | IC50 [17]: > 10000 nM | IC50 [18]: > 10000 nM | IC50 [19]: > 10000 nM | IC50 [20]: 428 nM | toxicity ([21]; CD-1 female mice): no significant toxicity was observed | genitourinary (GU) weight ([21]; CD-1 male mice): decrease in genitourinary (GU) weight | serum chemistry and complete blood analyses ([21]; CD-1 male mice): no significant changes | body weight loss ([21]; CD-1 male mice, doses of 30 mg/kg and 50 mg/kg, 3x/week): 10% | toxicity in vivo ([21]; administered intravenously): mild to intermediate toxicity | IC50 [22]: > 10000 nM

Reference: article PMC11513842, “Development of an orally bioavailable CDK12/13 degrader and induction of synthetic lethality with AKT pathway inhibition” (Cell Reports Medicine, 2024)
